Test results published in ChEMBL document CHEMBL5729088, “Thienodiazepine derivatives and application thereof” (2022).

Key:
[1] = molecular target: T1, Bromodomain-containing protein 4 (Homo sapiens, UniProt O60885); assay: (§1) BRD4 Biochemical Activity Test: The experiment plate was a plate that contained a gradient concentration of the compound and a corresponding DMSO solution and was prepared with ECHO before the experiment:a) The experiment plate was taken out, and 5 μL/well of “solution A” (protein solution) was added to columns 2-23 of the experiment plate, then 5 μL/well of 1× assay buffer was added to columns 1 and 24 of the experiment plate, and columns 1 and 24 were used as Min control in the experiment system;b) Centrifugation at 1000 rpm was carried out for 30 seconds;c) The plate was incubated at 23° C. for 20 minutes;d) After 20 minutes of incubation, 5 μL/well of “solution B” (polypeptide solution) was added to columns 1-24 of the experiment plate;e) Centrifugation at 1000 rpm was carried out for 30 seconds;f) The plate was incubated at 23° C. for 20 minutes;g) After 20 minutes of incubation, 5 μL/well of “solution C” (test reagent solution) was added to columns 1-24 of the experiment plate;h) Centrifugation at 1000 rpm was carried out for 30 seconds;i) The plate was incubated at 23° C. for 40 minutes;j) The experiment plate was placed on EnVision to read the plate.
[2] = molecular target: T1, Bromodomain-containing protein 4; assay: as §1; remark: listed apart in the source

Row | Structure (SMILES) | IC50 [1] [nM] | IC50 [2] [nM]
1 | Cc1sc2c(c1C)C(c1ccc(Cl)cc1)=N[C@@H](CC(=O)Nc1ccc(O)c3c1COC3)c1nnc(C)n1-2 | 100 | 21
2 | Cc1sc2c(c1C)C(c1ccc(Cl)cc1)=N[C@@H](CC(=O)Nc1ccc3c(c1)CS(=O)(=O)C3)c1nnc(C)n1-2 | 49 | 14
